Results: patent US9650369B2, “Anti-migration and anti-invasion thiazole analogs for treatment of cellular proliferative disease” (XAVIER UNIVERSITY OF LOUISIANA, priority 2012, dated 2017)
Entries after “also recorded” stand apart in the source; their conditions may differ. Where two headings read alike, the source gives them in different places.

Key:
Format in all cases: cell-based
[1] = test system: MDA-MB-231 breast cancer cells; assay: clonogenic assay (colony formation), MDA-MB-231; details: for activity at 10 µM / inhibition at 10 µM: Homo sapiens, 336 h; for activity at 10 µM / Effect on cell proliferation (colony formation) (% of vehicle control): MDA-MB-231, 10 μM analogs, 14 days; for activity at 10 µM: read-out: Effect on cell proliferation (colony formation) (% of vehicle control); for cytotoxicity (in words) / inhibition at 10 µM: MDA-MB-231, 10 μM, two weeks
Protocol: (§1) To determine if these analogs have anti-migration and anti-invasion activities in different cancer cell lines, transwell migration assays were performed using MDA-MB-231 breast cancer cells (FIG. 3) and HeLa cells (FIG. 5) for all synthetic analogs. […] Next, clonogenic assays were performed on the breast cancer cells treated with the compounds to rule out any indirect effect on cell migration due to cytotoxicity (FIG. 4). MDA-MB-231 cells were allowed to grow for 14 days in six-well plates in the presence or absence of the synthetic compounds at 10 μM.
To rule out any indirect effect on cell migration due to cytotoxicity, clonogenic assays were performed on the breast cancer cells treated with the compounds. MDA-MB-231 cells were allowed to grow for 14 days in six-well plates in the presence or absence of the synthetic compounds at 10 μM. […] For example, analog 3g blocked both cell migration (81.4%) and colony formation (42.7%). For these analogs cytotoxity may have partially contributed to their overall anti-migration effect. The cell toxicity data for all analogs are listed in Table 1 along with anti-migration data for comparison.

[2] = test system: MDA-MB-231 breast cancer cells; assay: transwell migration assay, MDA-MB-231; details: for IC50: transwell migration of MDA-MB-231 cells, read-out: IC50 (anti-migration); for inhibition at 10 µM: MDA-MB-231, MDA-MB-231, 10 μM, read-out: inhibition of cell migration
Protocol: as §1
To determine the effects of the synthesized mackroketone analogs on cancer cell migration, we performed transwell migration assay on each compound using an invasive and metastatic breast cancer cell line, MDA-MB-231. When cells were seeded at a density of 2.5×10^4 in media free of serum in the upper chamber but containing 5% FBS in the lower chamber, their ability to migrate in the presence and absence of 10 μM analogs were measured by counting the total number of cells in the lower chamber after 24 hrs.

HeLa cells [3] = assay: colony formation, HeLa
Source text: (§2) Based on the potent effects of synthetic thiazole analogs in blocking migration of MDA-MB-231 cells, ten analogs with high anti-migration activity but low or negligible cytotoxicity were selected to test their anti-migration activity in another metastatic cell line, HeLa. […] On the other hand, the analog 5i was not toxic to 231 cells, but it suppressed the clonogenic capability of HeLa cells by 45%. […] Thus 5k may be further evaluated for its potential as an anti-migration and anti-metastatic agent.

HeLa cells [4] = assay: transwell migration, HeLa; details: Homo sapiens
Protocol: as §1, §2

[5] = test system: f-actin in membrane protrusions of MDA-MB-231 cells; assay: f-actin staining of actin-rich membrane protrusions (fluorescent microscopy); details: MDA-MB-231, 10 μM, serum stimulated 2 hours; p<0.01
Source text: An essential component of migration is protrusion of the cell membrane, which is driven by actin polymerization. […] See Chen, L.; Yang. S.; Jakoncic, J.; Zhang, J. J.; Huang, X. Y. Migrastatin analogues target fascin to block tumour metastasis. Nature 2010; 464:1062-1066. Erratum in: Nature. 2011; 476:240; Hashimoto, Y., D. J. Kim, and J. C. Adams. The roles of fascins in health and disease. J. Pathol. 2011; 224:289-300; and Jayo, A., and M. Parsons. Fascin: a key regulator of cytoskeletal dynamics. Int. J. Biochem. Cell Biol. 2010; 42:1614-1617. […] See Chen, 2010. Thus, we tested the hypothesis that compound 5k interferes with f-actin in membrane protrusions associated with cell motility. MDA-MB-231 cells were serum starved −/+10 μM 5k, then stimulated with serum for 2 hours to induce actin-rich membrane protrusions, which were analyzed by fluorescent microscopy.

[6] = test system: MDA-MB-231 breast cancer cells; assay: matrigel invasion assay, MDA-MB-231; details: MDA-MB-231, matrigel
Source text: To determine if the synthetic thiazole analogs block invasion of metastatic cancer cells we performed matrigel invasion assays of MDA-MB-231 cells treated with 10 selected analogs.

[7] = test system: fascin in MDA-MB-231 cells; assay: fascin localization by immunofluorescence microscopy
Source text: Co-localization of f-actin and fascin appears as white pixels.
To further probe for a possible role of fascin in the reduction of actin-rich membrane protrusions, we determined the localization of fascin by immunofluorescence microscopy.

[8] = test system: A549 non small cell lung cancer cells; assay: migration assay, A549; details: A549, 10 μM

Row | IC50 ([2]; Homo sapiens) [µM] | Compound | activity at 10 µM [1] [%] | other results
1 | 0.839 | Cc1ccc(-c2csc(NC(=O)c3ccccc3)n2)c(C)c1 [Compound 3o, N-(4-(2,4-dimethylphenyl)thiazol-2-yl)benzamide] | 85 | 
2 | 2.49 | O=C(Nc1nc(-c2ccccc2)cs1)c1cccs1 [Compound 3a, N-(4-Phenylthiazol-2-yl)thiophene-2-carboxamide] | 85.9 | 
3 |  | CCCCCC(=O)Nc1nc(-c2ccccc2)cs1 [Compound 3m, N-(4-Phenylthiazol-2-yl)hexanamide] | 90.7 | 
4 |  | Cc1ccc(-c2csc(N)n2)c(C)c1 [Compound 2b, 2-Amino-4-(2,4-dimethylphenyl)thiazole] | 111 | cytotoxicity (in words) [1]: no apparent cell toxicity; inhibition at 10 µM ([2]; Homo sapiens): > 50%
5 | 2.87 | O=C(Nc1nc(-c2ccccc2)cs1)c1ccncc1 [Compound 3i, N-(4-Phenylthiazol-2-yl)isonicotinamide] | 95.5 | 
6 |  | COc1cc(C(=O)Nc2nc(-c3ccccc3)cs2)cc(OC)c1OC [Compound 3e, 3,4,5-Trimethoxy-N-(4-phenylthiazol-2-yl)benzamide] | 80.9 | 
7 |  | Cc1ccc(-c2cs/c(=N/C(=O)c3cccs3)n2C)c(C)c1 [Compound 5f, N-(4-(2,4-dimethylphenyl)-3-methylthiazol-2(3H)-yliene)thiophene-2-carboxamide] | 102 | 
8 | 1.29 | O=C(Nc1nc(-c2ccccc2)cs1)c1ccccc1 [Compound 3j, N-(4-Phenylthiazol-2-yl)benzamide] | 105 | 
9 |  | Cc1ccc(-c2csc(NC(=O)c3cccs3)n2)c(C)c1 [Compound 3f, N-(4-(2,4-Dimethylphenyl)thiazol-2-yl)thiophene-2-carboxamide] | 67.5 | 
10 |  | COc1ccc(C(=O)Nc2nc(-c3ccccc3)cs2)cc1OC [Compound 3g, 3,4-Dimethoxy-N-(4-phenylthiazol-2-yl)benzamide] | 57.3 | inhibition at 10 µM [1]: 42.7%; inhibition at 10 µM ([2]; Homo sapiens): > 80%
11 |  | COc1ccc(C(=O)N=c2scc(-c3ccccc3)n2C)cc1OC [Compound 5g, 3,4-Dimethoxy-N-(3-methyl-4-phenylthiazol-2(3H)-yliene)benzamide] |  | Effect on cell proliferation (colony formation) (% of vehicle control) [1]: 40.9%
12 |  | Cn1c(-c2ccccc2)cs/c1=N/C(=O)c1cccs1 [Compound 5a, N-(3-Methyl-4-phenylthiazol-2(3H)-yliene)thiophene-2-carboxamide] | 85 | 
13 | 0.189 | Cn1c(-c2ccccc2)cs/c1=N/C(=O)c1ccccc1 [Compound 5j, N-(3-Methyl-4-phenylthiazol-2(3H)-yliene)benzamide] | 25.2 | inhibition at 10 µM [1]: 75%; cytotoxicity (in words) [1]: strong inhibitor of cell proliferation; cytotoxicity (in words) (HeLa cells [3]): strong inhibitor of cell proliferation
14 |  | Cn1c(-c2ccccc2)cs/c1=N/C(=O)c1ccco1 [Compound 5b, N-(3-Methyl-4-phenylthiazol-2(3H)-yliene)furan-2-carboxamide] | 107 | 
15 |  | CN(C(=O)c1ccc(Br)cc1)c1nc(-c2ccccc2)cs1 [Compound 4a, 4-Bromo-N-methyl-N-(4-phenylthiazol-2-yl)benzamide] | 108 | 
16 | 0.366 | CN(C(=O)c1ccccc1)c1nc(-c2ccccc2)cs1 [Compound 4e, N-Methyl-N-(4-phenylthiazol-2-yl)benzamide] | 123 | cytotoxicity (in words) [1]: no apparent cell toxicity; inhibition at 10 µM ([2]; Homo sapiens): > 50%
17 |  | O=C(Nc1nc(-c2ccccc2)cs1)c1ccc(Br)cc1 [Compound 3d, 4-Bromo-N-(4-phenylthiazol-2-yl)benzamide] | 98.6 | 
18 |  | CCn1c(-c2ccccc2)csc1=NC(=O)c1cccs1 [Compound 5i, N-(3-Ethyl-4-phenylthiazol-2(3H)-yliene)thiophene-2-carboxamide] |  | Effect on cell proliferation (colony formation) (% of vehicle control) [1]: 97.7%; cytotoxicity (in words) [1]: not toxic; suppression of clonogenic capability (HeLa cells [3]): 45%; IC50 [2]: 2.08 µM
19 | 1.01 | CCCCCCCCCCCC(=O)Nc1nc(-c2ccccc2)cs1 [Compound 3n, N-(4-Phenylthiazol-2-yl)dodecanamide] | 71.5 | inhibition at 10 µM [1]: 30%; cytotoxicity (in words) [1]: no apparent cell toxicity; cytotoxicity (in words) (HeLa cells [3]): no apparent cytotoxicity; inhibition at 10 µM ([2]; Homo sapiens): > 50%
20 |  | O=C(Nc1nc(-c2ccccc2)cs1)C1CCCC1 [Compound 3k, N-(4-Phenylthiazol-2-yl)cyclopentanecarboxamide] | 99.8 | 
21 |  | CCN(C(=O)c1ccco1)c1nc(-c2ccccc2)cs1 [Compound 4d, N-Ethyl-N-(4-phenylthiazol-2-yl)furan-2-carboxamide] | 96.5 | 
22 |  | Cn1c(-c2ccccc2)cs/c1=N/C(=O)c1cccnc1 [Compound 5h, N-(3-Methyl-4-phenylthiazol-2(3H)-yliene)nicotinamide] | 112 | 
23 | 0.176 | Cc1ccc(-c2cs/c(=N/C(=O)c3ccccc3)n2C)c(C)c1 [Compound 5k, N-(4-(2,4-Dimethylphenyl)-3-methylthiazol-2(3H)-yliene)-benzamide] | 121 | inhibition at 10 µM (HeLa cells [4]): > 85%; reduction in f-actin intensity [5]: 55%; blocking cell invasion (in words) [6]: most potent compound in blocking cell invasion; cytotoxicity (in words) [1]: no apparent cell toxicity; also recorded: no apparent cytotoxity; cytotoxicity (in words) (HeLa cells [3]): no apparent cytotoxity; localization of fascin in actin-rich membrane regions (in words) [7]: notably missing from the actin-rich membrane regions; loss of migratory capacity [8]: ~80%
24 |  | CN(C(=O)C1CCCCC1)c1nc(-c2ccccc2)cs1 [Compound 4g, N-Methyl-N-(4-phenylthiazol-2-yl)cyclohexanecarboxamide] | 97.5 | 
25 |  | O=C(Nc1nc(-c2ccccc2)cs1)c1ccco1 [Compound 3b, N-(4-Phenylthiazol-2-yl)furan-2-carboxamide] | 98.8 | 
26 |  | COc1ccc(C(=O)N(C)c2nc(-c3ccccc3)cs2)cc1OC [Compound 4c, 3,4-Dimethoxy-N-methyl-N-(4-phenylthiazol-2-yl)benzamide] | 97.1 | 
27 | 1.12 | Cn1c(-c2ccccc2)csc1=NC(=O)c1ccc(Cl)cc1 [Compound 5c, 4-Chloro-N-(3-methyl-4-phenylthiazol-2(3H)-ylidene)benzamide] | 98.2 | 
28 |  | O=C(Nc1nc(-c2ccccc2)cs1)c1ccc(Cl)cc1 [Compound 3c, 4-Chloro-N-(4-phenylthiazol-2-yl)benzamide] | 95 | 
29 |  | O=C(Nc1nc(-c2ccccc2)cs1)C1CCCCC1 [Compound 3l, N-(4-Phenylthiazol-2-yl)cyclohexanecarboxamide] | 103 | 
30 |  | COc1cc(C(=O)/N=c2/scc(-c3ccccc3)n2C)cc(OC)c1OC [Compound 5e, 3,4,5-Trimethoxy-N-(3-methyl-4-phenylthiazol-2(3H)-yliene)benzamide] | 75.4 | 
